Results reported in ChEMBL document CHEMBL1155824, “Synthesis and antitumor activity of cyclodepsipeptide zygosporamide and its analogues” (Bioorg Med Chem Lett, 2008).

Legend:
Assay type in all cases: functional, cell-based
SF-268 = test: Cytotoxicity against human SF268 cells
SF-295 = test: Cytotoxicity against human SF295 cells
A549 = test: Cytotoxicity against human A549 cells
MDA-MB-231 = test: Cytotoxicity against human MDA-MB-231 cells
HCT-116 = test: Cytotoxicity against human HCT116 cells

Row | SMILES | IC50 (SF-268) [µM] | IC50 (SF-295) [µM] | IC50 (A549) [µM] | IC50 (MDA-MB-231) [µM] | IC50 (HCT-116) [µM]
1 | CC(C)C[C@@H]1OC(=O)[C@H](Cc2ccccc2)NC(=O)[C@H](C)NC(=O)[C@@H](CC(C)C)NC(=O)[C@H](Cc2ccccc2)NC1=O | > 50 | > 50 | > 50 | > 50 | > 50
2 | CC(C)C[C@@H]1NC(=O)[C@@H](CC(C)C)NC(=O)[C@H](Cc2ccccc2)NC(=O)[C@H](CC(C)C)OC(=O)[C@H](C)NC1=O | 8.8 | 6 | > 50 | 2.8 | 2.7
3 | CC(C)C[C@@H]1NC(=O)[C@@H](CC(C)C)NC(=O)[C@H](C)NC(=O)[C@H](CC(C)C)OC(=O)[C@H](Cc2ccccc2)NC1=O | 35 | 19.7 | 31 | 7.5 | > 50
4 | CC(C)C[C@@H]1NC(=O)[C@@H](C)NC(=O)[C@H](Cc2ccccc2)NC(=O)[C@H](CC(C)C)OC(=O)[C@H](Cc2ccccc2)NC1=O | 10.4 | 8.7 | > 50 | 5 | 2.1
5 | CC(C)C[C@@H]1NC(=O)[C@@H](CC(C)C)NC(=O)[C@H](Cc2ccccc2)NC(=O)[C@H](C)OC(=O)[C@H](Cc2ccccc2)NC1=O | 31 | 32 | > 50 | > 50 | 7.8
6 | CC(C)C[C@@H]1NC(=O)[C@H](Cc2ccccc2)NC(=O)[C@H](CC(C)C)NC(=O)[C@@H](CC(C)C)NC(=O)[C@H](Cc2ccccc2)NC1=O | 20.5 | 14.4 | 21 | > 50 | 1.9
7 | CC(=O)O[C@H]1C(=O)[C@@]2(C)[C@H]([C@H](OC(=O)c3ccccc3)[C@]3(O)C[C@H](OC(=O)[C@H](O)[C@@H](NC(=O)c4ccccc4)c4ccccc4)C(C)=C1C3(C)C)[C@]1(OC(C)=O)CO[C@@H]1C[C@@H]2O [PACLITAXEL] | 0.0153 | 0.29 | 0.0231 | 0.0405 | 0.0136
8 | CC(C)C[C@@H]1NC(=O)[C@@H](CC(C)C)NC(=O)[C@H](Cc2ccccc2)NC(=O)[C@H](CC(C)C)OC(=O)[C@H](Cc2ccccc2)NC1=O [ZYGOSPORAMIDE] | 4.6 | 4.2 | 2.5 | 5.7 | 22
